Experiments:
Type in all cases: in vivo
[1] = test system: ragweed (common ragweed, Ambrosia elatior); assay: Test A preemergence, visual injury rating; conditions: 0 to 100 scale (0 no effect, 100 complete control)
Outline: (§1)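 Compounds in non-phytotoxic solvent with surfactant applied as soil spray preemergence, or postemergence to plants 2-10 cm at one- to two-leaf stage, in loam/sand. After approximately 10 days in greenhouse, injury rated visually versus untreated controls, 0 (no effect) to 100 (complete control).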

[2] = test system: barnyardgrass (Echinochloa crus-galli); assay: Test A preemergence, visual injury rating; conditions: 0 to 100 scale (0 no effect, 100 complete control)
Outline: as §1

kochia (Kochia scoparia) [3] = assay: Test A preemergence, visual injury rating; conditions: 0 to 100 scale (0 no effect, 100 complete control)
Outline: as §1

[4] = test system: Italian ryegrass (Lolium multiflorum); assay: Test A preemergence, visual injury rating; conditions: 0 to 100 scale (0 no effect, 100 complete control)
Outline: as §1

[5] = test system: pigweed (Amaranthus retroflexus); assay: Test A preemergence, visual injury rating; conditions: 0 to 100 scale (0 no effect, 100 complete control)
Outline: as §1

[6] = test system: giant foxtail (Setaria faberii); assay: Test A preemergence, visual injury rating; conditions: 0 to 100 scale (0 no effect, 100 complete control)
Outline: as §1

corn (Zea mays) = assay: Test A postemergence, visual injury rating; conditions: 0 is no effect, 100 is complete control
Excerpt: (§2) Seeds of plant species selected from barnyardgrass (Echinochloa crus-galli), kochia (Kochia scoparia), ragweed (common ragweed, Ambrosia elatior), Italian ryegrass (Lolium multiflorum), large (Lg) crabgrass (Digitaria sanguinalis), giant foxtail (Setaria faberii), morningglory (Ipomoea spp.), pigweed (Amaranthus retroflexus), velvetleaf (Abutilon theophrasti), wheat (Triticum aestivum), and corn (Zea mays) were planted into a blend of loam soil and sand and treated preemergence with a directed soil spray using test chemicals formulated in a non-phytotoxic solvent mixture which included a surfactant.
(§3) At the same time, plants selected from these crop and weed species and also blackgrass (Alopecurus myosuroides), and galium (catchweed bedstraw, Galium aparine) were planted in pots containing the same blend of loam soil and sand and treated with postemergence applications of test chemicals formulated in the same manner. Plants ranged in height from 2 to 10 cm and were in the one- to two-leaf stage for the postemergence treatment. Treated plants and untreated controls were maintained in a greenhouse for approximately 10 days, after which time all treated plants were compared to untreated controls and visually evaluated for injury. Plant response ratings, summarized in Table A, are based on a 0 to 100 scale where 0 is no effect and 100 is complete control. A dash (-) response means no test result.

[7] = test system: blackgrass (Alopecurus myosuroides); assay: Test A postemergence, visual injury rating; conditions: 0 is no effect, 100 is complete control
Excerpt: as §2, §3

[8] = test system: galium (catchweed bedstraw, Galium aparine); assay: Test A postemergence, visual injury rating; conditions: 0 is no effect, 100 is complete control
Excerpt: as §2, §3

[9] = test system: wheat (Triticum aestivum); assay: Test A postemergence, visual injury rating; conditions: 0 is no effect, 100 is complete control
Excerpt: as §2, §3

[10] = test system: ragweed (common ragweed, Ambrosia elatior); assay: Test A postemergence, visual injury rating; conditions: 0 is no effect, 100 is complete control
Excerpt: as §2, §3

[11] = test system: barnyardgrass (Echinochloa crus-galli); assay: Test A postemergence, visual injury rating; conditions: 0 is no effect, 100 is complete control
Excerpt: as §2, §3

kochia (Kochia scoparia) [12] = assay: Test A postemergence, visual injury rating; conditions: 0 is no effect, 100 is complete control
Excerpt: as §2, §3

[13] = test system: Italian ryegrass (Lolium multiflorum); assay: Test A postemergence, visual injury rating; conditions: 0 is no effect, 100 is complete control
Excerpt: as §2, §3

[14] = test system: pigweed (Amaranthus retroflexus); assay: Test A postemergence, visual injury rating; conditions: 0 is no effect, 100 is complete control
Excerpt: as §2, §3

[15] = test system: giant foxtail (Setaria faberii); assay: Test A postemergence, visual injury rating; conditions: 0 is no effect, 100 is complete control
Excerpt: as §2, §3

rice (Oryza sativa) = assay: Test B flooded paddy test, plant response rating; conditions: 250 g ai/ha; Flood; scale of 0 to 100 where 0 is no effect and 100 is complete control; 13 to 15 days
Outline: (§4)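 Flooded 3 cm over soil; compound into paddy water; depth kept constant. Greenhouse 13–15 d.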

[16] = test system: sedge, umbrella (small-flower umbrella sedge, Cyperus difformis); assay: Test B flooded paddy test, plant response rating; conditions: 250 g ai/ha; Flood; scale of 0 to 100 where 0 is no effect and 100 is complete control; 13 to 15 days
Outline: as §4

[17] = test system: barnyardgrass (Echinochloa crus-galli); assay: Test B flooded paddy test, plant response rating; conditions: 250 g ai/ha; Flood; scale of 0 to 100 where 0 is no effect and 100 is complete control; 13 to 15 days
Outline: as §4

[18] = test system: ducksalad (Heteranthera limosa); assay: Test B flooded paddy test, plant response rating; conditions: 250 g ai/ha; Flood; scale of 0 to 100 where 0 is no effect and 100 is complete control; 13 to 15 days
Outline: as §4

SMILES | Ragweed plant response rating ([1]; 125 g ai/ha) | Ragweed plant response rating ([1]; 500 g ai/ha) | Barnyardgrass plant response rating ([2]; 125 g ai/ha) | Barnyardgrass plant response rating ([2]; 500 g ai/ha) | Kochia plant response rating (kochia (Kochia scoparia) [3]; 125 g ai/ha) | Kochia plant response rating (kochia (Kochia scoparia) [3]; 500 g ai/ha) | Ryegrass, Italian plant response rating ([4]; 125 g ai/ha) | Ryegrass, Italian plant response rating ([4]; 500 g ai/ha) | Pigweed plant response rating ([5]; 125 g ai/ha) | Pigweed plant response rating ([5]; 500 g ai/ha) | Foxtail, Giant plant response rating ([6]; 125 g ai/ha) | Foxtail, Giant plant response rating ([6]; 500 g ai/ha) | Corn plant response rating (0 to 100 scale) (corn (Zea mays); 125 g ai/ha) | Corn plant response rating (0 to 100 scale) (corn (Zea mays); 500 g ai/ha) | Blackgrass plant response rating (0 to 100 scale) ([7]; 125 g ai/ha) | Blackgrass plant response rating (0 to 100 scale) ([7]; 500 g ai/ha) | Galium plant response rating (0 to 100 scale) ([8]; 125 g ai/ha) | Galium plant response rating (0 to 100 scale) ([8]; 500 g ai/ha) | Wheat plant response rating (0 to 100 scale) ([9]; 125 g ai/ha) | Wheat plant response rating (0 to 100 scale) ([9]; 500 g ai/ha) | other results
CN(OCC(F)(F)F)C(=O)c1c(Br)cccc1Oc1ncc(Br)cn1 [Compound 24] | 0 | 0 | 0 | 30 | 0 | 0 | 0 | 0 | 0 | 90 | 0 | 20 | 0 | 0 | 0 | 0 | 10 | 20 | 0 | 0 | Ragweed plant response rating (0 to 100 scale) ([10]; 125 g ai/ha): 0; Ragweed plant response rating (0 to 100 scale) ([10]; 500 g ai/ha): 0; Barnyardgrass plant response rating (0 to 100 scale) ([11]; 125 g ai/ha): 0; Barnyardgrass plant response rating (0 to 100 scale) ([11]; 500 g ai/ha): 10; Kochia plant response rating (0 to 100 scale) (kochia (Kochia scoparia) [12]; 125 g ai/ha): 0; Kochia plant response rating (0 to 100 scale) (kochia (Kochia scoparia) [12]; 500 g ai/ha): 0; Ryegrass, Italian plant response rating (0 to 100 scale) ([13]; 125 g ai/ha): 0; Ryegrass, Italian plant response rating (0 to 100 scale) ([13]; 500 g ai/ha): 0; Pigweed plant response rating (0 to 100 scale) ([14]; 125 g ai/ha): 0; Pigweed plant response rating (0 to 100 scale) ([14]; 500 g ai/ha): 10; Foxtail, Giant plant response rating (0 to 100 scale) ([15]; 125 g ai/ha): 0; Foxtail, Giant plant response rating (0 to 100 scale) ([15]; 500 g ai/ha): 0; Plant response rating, Rice (rice (Oryza sativa)): 0; Plant response rating, Sedge, Umbrella [16]: 0; Plant response rating, Barnyardgrass [17]: 0; Plant response rating, Ducksalad [18]: 0
CN(OCC(F)(F)F)C(=O)c1c(Br)cccc1Oc1ncc(Cl)cn1 [Compound 25] | 0 | 0 | 0 | 30 | 0 | 50 | 0 | 0 | 40 | 80 | 10 | 60 | 0 | 20 | 0 | 30 | 20 | 50 | 0 | 10 | Ragweed plant response rating (0 to 100 scale) ([10]; 125 g ai/ha): 10; Ragweed plant response rating (0 to 100 scale) ([10]; 500 g ai/ha): 20; Barnyardgrass plant response rating (0 to 100 scale) ([11]; 125 g ai/ha): 0; Barnyardgrass plant response rating (0 to 100 scale) ([11]; 500 g ai/ha): 10; Kochia plant response rating (0 to 100 scale) (kochia (Kochia scoparia) [12]; 125 g ai/ha): 10; Kochia plant response rating (0 to 100 scale) (kochia (Kochia scoparia) [12]; 500 g ai/ha): 50; Ryegrass, Italian plant response rating (0 to 100 scale) ([13]; 125 g ai/ha): 0; Ryegrass, Italian plant response rating (0 to 100 scale) ([13]; 500 g ai/ha): 0; Pigweed plant response rating (0 to 100 scale) ([14]; 125 g ai/ha): 30; Pigweed plant response rating (0 to 100 scale) ([14]; 500 g ai/ha): 60; Foxtail, Giant plant response rating (0 to 100 scale) ([15]; 125 g ai/ha): 0; Foxtail, Giant plant response rating (0 to 100 scale) ([15]; 500 g ai/ha): 10; Plant response rating, Rice (rice (Oryza sativa)): 0; Plant response rating, Sedge, Umbrella [16]: 0; Plant response rating, Barnyardgrass [17]: 0; Plant response rating, Ducksalad [18]: 0
